Activation data for 20 compounds are collected here from patent US10781189B2, “1,2,4-Oxadiazole and thiadiazole compounds as immunomodulators” (Aurigene Discovery Technologies Limited, priority 2015, dated 2020).

For the assay, the target named is T1, Recombinant mouse PD-L1 (Mus musculus, UniProt Q9EP73).
T1 construct: Fc (Fc chimera); purchased R&D Systems 1019-B7-100
The experiment in a line: Rescue of mouse splenocyte proliferation in the presence of recombinant PD-L1 (CFSE proliferation assay). Type of assay: cell-based. The following applies: 100 nM compound; CFSE-labelled C57 BL6 mouse splenocytes + anti-CD3/CD28 + PD-L1 (100 ng/mL), 72 h; normalised to stimulated splenocytes as 100%; read-out: Percent rescue of splenocyte proliferation (@100 nM). How it is done:
Example 15: Rescue of Mouse Splenocyte Proliferation in the Presence of Recombinant PD-L1
Recombinant mouse PD-L1 (rm-PDL-1, cat no: 1019-B7-100; R&D Systems) were used as the source of PD-L1.
Mouse splenocytes harvested from 6-8 weeks old C57 BL6 mice; RPMI 1640 (GIBCO, Cat #11875); DMEM with high glucose (GIBCO, Cat # D6429); Fetal Bovine Serum [Hyclone, Cat # SH30071.03]; Penicillin (10000 unit/mL)-Streptomycin (10,000 μg/mL) Liquid (GIBCO, Cat #15140-122); MEM Sodium Pyruvate solution 100 mM (100×), Liquid (GIBCO, Cat #11360); Nonessential amino acid (GIBCO, Cat #11140); L-Glutamine (GIBCO, Cat #25030); Anti-CD3 antibody (eBiosciences—16-0032); Anti-CD28 antibody (eBiosciences—16-0281); ACK lysis buffer (1 mL) (GIBCO, Cat #-A10492); Histopaque (density-1.083 gm/mL) (SIGMA 10831); Trypan blue solution (SIGMA-T8154); 2 mL Norm Ject Luer Lock syringe-(Sigma 2014-12); 40 μm nylon cell strainer (BD FALCON 35230); Hemacytometer (Bright line-SIGMA Z359629); FACS Buffer (PBS/0.1% BSA): Phosphate Buffered Saline (PBS) pH 7.2 (HiMedia TS1006) with 0.1% Bovine Serum Albumin (BSA) (SIGMA A7050) and sodium azide (SIGMA 08591); 5 mM stock solution of CFSE: CFSE stock solution was prepared by diluting lyophilized CFSE with 180 μL of Dimethyl sulfoxide (DMSO C2H6SO, SIGMA-D-5879) and aliquoted in to tubes for further use. Working concentrations were titrated from 10 μM to 1 μM. (eBioscience—650850-85); 0.05% Trypsin and 0.02% EDTA (SIGMA 59417C); 96-well format ELISA plates (Corning CLS3390); BD FACS caliber (E6016); Recombinant mouse B7-H1/PDL1 Fc Chimera, (rm-PD-L1 cat no: 1019-B7-100).
Splenocytes harvested in a 50 mL falcon tube by mashing mouse spleen in a 40 μm cell strainer were further treated with 1 mL ACK lysis buffer for 5 min at room temperature. After washing with 9 mL of RPMI complete media, cells were re-suspended in 3 mL of 1×PBS in a 15 mL tube. 3 mL of Histopaque was added carefully to the bottom of the tube without disturbing overlaying splenocyte suspension. After centrifuging at 800×g for 20 min at room temperature, the opaque layer of splenocytes was collected carefully without disturbing/mixing the layers. Splenocytes were washed twice with cold 1×PBS followed by total cell counting using Trypan Blue exclusion method and used further for cell based assays.
Splenocytes were cultured in RPMI complete media (RPMI+10% fetal bovine serum+1 mM sodium pyruvate+10,000 units/mL penicillin and […] streptomycin) and maintained in a CO2 incubator with 5% CO2 at 37° C.
CFSE is a dye that passively diffuses into cells and binds to intracellular proteins. 1×10^6 cells/mL of harvested splenocytes were treated with 5 μM of CFSE in pre-warmed 1×PBS/0.1% BSA solution for 10 min at 37° C. Excess CFSE was quenched using 5 volumes of ice-cold culture media to the cells and incubated on ice for 5 min. CFSE labelled splenocytes were further given three washes with ice cold complete RPMI media. CFSE labelled 1×10^5 splenocytes added to wells containing either MDA-MB231 cells (1×10^5 cells cultured in high glucose DMEM medium) or recombinant human PDL-1 (100 ng/mL) and test compounds. Splenocytes were stimulated with anti-mouse CD3 and anti-mouse CD28 antibody (1 μg/mL each) and the culture was further incubated for 72 h at 37° C. with 5% CO2. Cells were harvested and washed thrice with ice cold FACS buffer and % proliferation was analysed by flow cytometry with 488 nm excitation and 521 nm emission filters.
Percent splenocyte proliferation was analysed using cell quest FACS program and percent rescue of splenocyte proliferation by compound was estimated after deduction of % background proliferation value and normalising to % stimulated splenocyte proliferation (positive control) as 100%.
Stimulated splenocytes: Splenocytes+anti-CD3/CD28 stimulation
Background proliferation: Splenocytes+anti-CD3/CD28+PD-L1
Compound proliferation: Splenocytes+anti-CD3/CD28+PD-L1+Compound […]

Molecules are shown by their SMILES.

T1 sequence (Q9EP73 with tags, fused parts or gaps limits assumed): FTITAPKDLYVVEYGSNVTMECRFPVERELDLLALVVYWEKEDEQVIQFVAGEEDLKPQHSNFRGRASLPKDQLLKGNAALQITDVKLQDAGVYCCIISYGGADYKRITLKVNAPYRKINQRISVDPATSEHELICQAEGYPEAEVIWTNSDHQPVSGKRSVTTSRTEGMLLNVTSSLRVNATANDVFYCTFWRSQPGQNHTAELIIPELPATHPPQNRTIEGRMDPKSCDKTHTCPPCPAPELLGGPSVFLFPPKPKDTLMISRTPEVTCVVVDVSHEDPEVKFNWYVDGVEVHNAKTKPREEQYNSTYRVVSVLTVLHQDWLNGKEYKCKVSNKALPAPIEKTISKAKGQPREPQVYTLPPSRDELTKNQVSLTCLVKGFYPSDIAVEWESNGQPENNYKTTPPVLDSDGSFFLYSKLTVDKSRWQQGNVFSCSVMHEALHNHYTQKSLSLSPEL

Regarding `N[C@@H](Cc1ccc(O)cc1)c1noc([C@@H]2CCCN2C(=O)N[C@@H](Cc2ccc(O)cc2)C(=O)O)n1` [Compound 7], the activation at 0.1 µM came to 91%. In the case of `CC(O)[C@H](NC(=O)N[C@@H](CC(=O)O)c1nc([C@@H](N)CCCNC(=N)N)no1)C(=O)O` (some centres unmarked) [Compound 32], the activation at 0.1 µM amounted to 70%.

With `CC(O)[C@H](NC(=O)[C@H](CCC(N)=O)NC(=O)N[C@@H](CC(N)=O)c1nc([C@@H](N)CO)no1)C(=O)O` (some centres unmarked) [Compound 81], the activation at 0.1 µM is 18%. In the case of `N[C@@H](CC(=O)O)c1noc([C@@H]2CCCN2C(=O)N[C@@H](CC(=O)O)C(=O)O)n1` [Compound 23], the activation at 0.1 µM was found to be 49%. Consider `C[C@H](NC(=O)N[C@@H](C)c1nc([C@H](C)N)no1)C(=O)O` [Compound 1], for which the activation at 0.1 µM worked out at 76%.

As to `CC(O)[C@H](NC(=O)N1CCC[C@H]1c1nc([C@@H](N)CO)no1)C(=O)O` (some centres unmarked) [Compound 6], the activation at 0.1 µM amounted to 69%. Take `CC(O)[C@H](NC(=O)N[C@@H](CCC(N)=O)c1nc([C@@H](N)CCCNC(=N)N)no1)C(=O)O` (some centres unmarked) [Compound 33]: the activation at 0.1 µM was determined as 60%. Take `CC(O)[C@H](NC(=O)N[C@@H](CC(N)=O)c1nc([C@@H](N)Cc2ccc(O)cc2)no1)C(=O)O` (some centres unmarked) [Compound 42]: the activation at 0.1 µM was found to be 50%.

Turning to `CC(O)[C@H](NC(=O)N[C@@H](Cc1ccccc1)c1nc([C@@H](N)CO)no1)C(=O)O` (some centres unmarked) [Compound 14], the activation at 0.1 µM came out at 92%. The value for `NCCCC[C@H](N)c1noc([C@H](CCC(N)=O)NC(=O)N[C@@H](CO)C(=O)O)n1` [Compound 36] was 68%; that for `N[C@@H](CCC(=O)O)c1noc([C@@H]2CCCN2C(=O)N[C@@H](CC(=O)O)C(=O)O)n1` [Compound 24] was 17%; that for `CC(O)[C@H](NC(=O)N1CCC[C@H]1c1nc([C@@H](N)Cc2ccc(O)cc2)no1)C(=O)O` (some centres unmarked) [Compound 21] was 51%. Turning to `CSCC[C@H](N)c1noc([C@H](CC(N)=O)NC(=O)N[C@@H](CC(=O)O)C(=O)O)n1` [Compound 46], the activation at 0.1 µM was determined as 53%. In the case of `NC(=O)C[C@H](NS(=O)(=O)C1CCCCC1)c1nc([C@@H](N)CO)no1` [Compound 89], the activation at 0.1 µM came to 54%. As to `CC(O)[C@H](NC(=O)N[C@H](c1nc([C@@H](N)CO)no1)C(C)C)C(=O)O` (some centres unmarked) [Compound 44], the activation at 0.1 µM was 71%.

Take `CCN(Cc1ccccc1)C(=O)N[C@@H](CC(N)=O)c1nc([C@@H](N)CO)no1` (stereo in doubt) [Compound 94]: the activation at 0.1 µM was 97%.

Consider `CCCNC(=O)CC[C@H](NC(=O)N[C@H](C(=O)O)C(C)O)c1nc([C@@H](N)CO)no1` (some centres unmarked) [Compound 75], for which the activation at 0.1 µM came out at 119%. For the compound `NC(=O)C[C@H](NC(=O)N[C@@H](CCC(=O)O)C(=O)O)c1nc([C@@H](N)CO)no1` [Compound 4], the activation at 0.1 µM was 44%. As to `N[C@@H](Cc1ccc(O)cc1)c1noc([C@@H]2C(O)CCN2C(=O)N[C@@H](Cc2ccc(O)cc2)C(=O)O)n1` (some centres unmarked) [Compound 19], the activation at 0.1 µM was found to be 54%. Regarding `NCCCC[C@H](NC(=O)N[C@@H](CC(=O)O)c1nc([C@@H](N)Cc2cnc[nH]2)no1)C(=O)O` [Compound 35], the activation at 0.1 µM came to 66%.
